Here are results for 20 compounds from PubChem BioAssay (NCI).

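Values below derive from 48-hour exposures of cells grown in 96-well plates, with endpoints linearly interpolated between the two concentrations bracketing the appropriate inhibition level. GI50 marks 50% less growth. The concentration for full growth arrest is given as TGI.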 Where only a bound is given, the exact number is not on record here.

One experiment deals with TK-10 renal. The experiment is described as follows: DTP human tumour cell line panel, 48 h.
As for `CCN(CC)c1ccc(-c2cc(-c3cc(OC)c(OC)c(OC)c3)nc(N3CCOCC3)c2C#N)cc1`, the GI50 was 15.3 µM and the TGI is over 100 µM.
As for `CC(=O)OC1=CC(n2cc(F)c(=O)[nH]c2=O)OC(C)C1=O` (stereo not given), the TGI was over 100 µM.
The same measure, in the same setting: the value for `NC1(C(=O)OCc2ccccc2)CCCC1` was over 100 µM.
In the case of `Cn1cnc([N+](=O)[O-])c1S(=O)(=O)Oc1cccc2ccccc12`, the GI50 was 1.59 µM and the total growth inhibition concentration (TGI) is 2.98 µM.
For `Fc1cc2[nH]ncc2c2c3c(c(-c4cn[nH]c4)nc12)CCCC3`, the GI50 is 1.21 µM and the TGI was over 27.8 µM.
With `COc1cc(OC)cc(-c2cc(=O)c3c(OC)c(OC)c(OC)c(OC)c3o2)c1`, the TGI is over 100 µM.
Same read-out and setting: the value for `C=C(Br)C(C)(Br)CCC(Br)C(C)(C)Cl` (stereo not given) was 32.7 µM.
On the same count and under the same terms, the value for `CSc1nc(NC2OCC(OC(C)=O)C(OC(C)=O)C2OC(C)=O)c(N=CC=Nc2c(NC3OCC(OC(C)=O)C(OC(C)=O)C3OC(C)=O)nc(SC)[nH]c2=O)c(=O)[nH]1` (stereo not given) was over 100 µM.
Turning to `COc1ccc(-c2nnc(COc3ccc(NC(=O)Nc4cc(C(F)(F)F)cc(C(F)(F)F)c4)cc3F)o2)cc1`, the GI50 was 3.49 µM and the TGI worked out at 12.4 µM.
The corresponding values for `COc1ccc(-c2nnc(COc3ccc(C(=O)/C=C/c4ccco4)cc3)o2)cc1` are 2.81 µM and 6.25 µM.
For `CC1(C)C2CCC(=O)C1CC2` (stereo not given), the TGI is over 100 µM.

The next experiment concerns HOP-62 NSCLC. The experiment is described as follows: DTP human tumour cell line panel, 48 h.
On to `CCOC(=O)c1cc2nc3ccccc3c(=O)n2c2ccccc12`, for which the TGI is over 10 µM.
Same read-out and setting: the value for `COc1cc2c(c(OC)c1OC)-c1ccc(OC)c(=O)cc1C(NC(=O)c1ccc(N=[N+]=[N-])cc1)CC2` (stereo not given) was over 95.1 µM.
With `CCN1CCN(c2nc(C)cc(N(CCNc3ccnc4cc(Cl)ccc34)Cc3ccc4c(c3)OCO4)n2)CC1`, the GI50 is 2.21 µM and the TGI worked out at 11.5 µM.
In turn, `COc1c(Cl)c(=O)oc2ccc(Cl)cc12` displayed a TGI of over 100 µM.
Take `Cc1cc(I)cc(CN(C)CCCN2CCCCC2)c1O`: the GI50 was 13.7 µM and the TGI worked out at 27 µM.
`COc1cc(NCc2ccc3oc(=O)c(-c4ccccc4)nc3c2)cc(OC)c1OC` gave a TGI of over 10 µM.
Same read-out and setting: the value for `CN(C(=O)c1ccc(C(F)(F)F)cc1)c1ccc(Oc2ccc3c(c2)cc(C(=O)N2CCN(Cc4ccc(OC(F)F)cc4)CC2)n3C)nc1` was over 100 µM; that for `Cc1ccccc1S(=O)(=O)OC1NS(=O)(=O)c2ccccc21` (stereo not given) was over 100 µM.
Turning to `Nc1ncnc2n[nH]c(Nc3ccc(F)cc3)c12`, the GI50 was 64.8 µM and the TGI was over 100 µM.
The corresponding values for `CCN(CC)c1ccc(-c2cc(-c3cc(OC)c(OC)c(OC)c3)nc(N3CCOCC3)c2C#N)cc1` are 2.24 µM and 16.5 µM.
`CC(=O)OC1=CC(n2cc(F)c(=O)[nH]c2=O)OC(C)C1=O` (stereo not given) yielded a TGI of over 100 µM.
On the same count and under the same terms, the value for `NC1(C(=O)OCc2ccccc2)CCCC1` was 46.7 µM.
Regarding `Cn1cnc([N+](=O)[O-])c1S(=O)(=O)Oc1cccc2ccccc12`, the GI50 is 2.56 µM and the TGI is 5.45 µM.
The corresponding values for `Fc1cc2[nH]ncc2c2c3c(c(-c4cn[nH]c4)nc12)CCCC3` are 1.6 µM and over 21 µM.
`COc1cc(OC)cc(-c2cc(=O)c3c(OC)c(OC)c(OC)c(OC)c3o2)c1` registered a TGI of over 100 µM.
On the same count and under the same terms, the value for `C=C(Br)C(C)(Br)CCC(Br)C(C)(C)Cl` (stereo not given) was 39.4 µM; that for `CSc1nc(NC2OCC(OC(C)=O)C(OC(C)=O)C2OC(C)=O)c(N=CC=Nc2c(NC3OCC(OC(C)=O)C(OC(C)=O)C3OC(C)=O)nc(SC)[nH]c2=O)c(=O)[nH]1` (stereo not given) was over 92.6 µM.
`COc1ccc(-c2nnc(COc3ccc(NC(=O)Nc4cc(C(F)(F)F)cc(C(F)(F)F)c4)cc3F)o2)cc1`: the GI50 is 2.69 µM and the TGI came out at 7.12 µM.
The corresponding values for `COc1ccc(-c2nnc(COc3ccc(C(=O)/C=C/c4ccco4)cc3)o2)cc1` are 2.5 µM and 7.23 µM.
`CC1(C)C2CCC(=O)C1CC2` (stereo not given) returned a TGI of over 100 µM.

A further experiment deals with T-47D breast. As to the kind of experiment: DTP human tumour cell line panel, 48 h.
`CCOC(=O)c1cc2nc3ccccc3c(=O)n2c2ccccc12` displayed a TGI of over 10 µM.
On the same count and under the same terms, the value for `COc1cc2c(c(OC)c1OC)-c1ccc(OC)c(=O)cc1C(NC(=O)c1ccc(N=[N+]=[N-])cc1)CC2` (stereo not given) was over 100 µM.
With `CCN1CCN(c2nc(C)cc(N(CCNc3ccnc4cc(Cl)ccc34)Cc3ccc4c(c3)OCO4)n2)CC1`, the GI50 is 1.73 µM and the concentration for total growth inhibition (TGI) is 3.87 µM.
With `COc1c(Cl)c(=O)oc2ccc(Cl)cc12`, the TGI is over 100 µM.
In the case of `Cc1cc(I)cc(CN(C)CCCN2CCCCC2)c1O`, the GI50 is 15.8 µM and the TGI came out at 43 µM.
For `COc1cc(NCc2ccc3oc(=O)c(-c4ccccc4)nc3c2)cc(OC)c1OC`, the TGI was over 10 µM.
Consider `CN(C(=O)c1ccc(C(F)(F)F)cc1)c1ccc(Oc2ccc3c(c2)cc(C(=O)N2CCN(Cc4ccc(OC(F)F)cc4)CC2)n3C)nc1`, for which the 50% growth inhibitory concentration (GI50) is 0.253 µM and the TGI was over 58.2 µM.
For the compound `Cc1ccccc1S(=O)(=O)OC1NS(=O)(=O)c2ccccc21` (stereo not given), the TGI is over 100 µM.
As for `Nc1ncnc2n[nH]c(Nc3ccc(F)cc3)c12`, the GI50 was 21.1 µM and the TGI is over 100 µM.
With `CCN(CC)c1ccc(-c2cc(-c3cc(OC)c(OC)c(OC)c3)nc(N3CCOCC3)c2C#N)cc1`, the GI50 was 1.29 µM and the TGI is over 100 µM.
In turn, `CC(=O)OC1=CC(n2cc(F)c(=O)[nH]c2=O)OC(C)C1=O` (stereo not given) came in with a TGI of over 100 µM.
The same measure, in the same setting: the value for `NC1(C(=O)OCc2ccccc2)CCCC1` was over 100 µM.
`Cn1cnc([N+](=O)[O-])c1S(=O)(=O)Oc1cccc2ccccc12`: the GI50 is 1.91 µM and the TGI was found to be 4.29 µM.
The corresponding values for `Fc1cc2[nH]ncc2c2c3c(c(-c4cn[nH]c4)nc12)CCCC3` are 1.26 µM and over 21.5 µM.
`COc1cc(OC)cc(-c2cc(=O)c3c(OC)c(OC)c(OC)c(OC)c3o2)c1` came in with a TGI of 64.1 µM. This lies in the double-digit micromolar range.
Same read-out and setting: the value for `C=C(Br)C(C)(Br)CCC(Br)C(C)(C)Cl` (stereo not given) was 44.1 µM.
Still for that read-out and setting: the value for `CSc1nc(NC2OCC(OC(C)=O)C(OC(C)=O)C2OC(C)=O)c(N=CC=Nc2c(NC3OCC(OC(C)=O)C(OC(C)=O)C3OC(C)=O)nc(SC)[nH]c2=O)c(=O)[nH]1` (stereo not given) was over 100 µM.
Consider `COc1ccc(-c2nnc(COc3ccc(NC(=O)Nc4cc(C(F)(F)F)cc(C(F)(F)F)c4)cc3F)o2)cc1`, for which the GI50 is 2.62 µM and the TGI was 6.94 µM.

Broadly, the GI50 is the concentration that inhibits growth by half. A word on the TGI: it is the concentration at which net growth stops. A high value points to lower sensitivity of the cells.
